Measurements as given in publication PMC4695185, “Semi-synthetic ocotillol analogues as selective ABCB1-mediated drug resistance reversal agents” (Oncotarget, 2015).
Read-outs that look alike come from different tables or passages of the source.

What was measured:
[1] = system: T1, HEK/ABCG2; experiment: cells; parameters: species or system HEK293 and transfected HEK293; MTT cytotoxicity, absorbance 570 nm, 72 h; conditions: Homo sapiens, HEK293, 72 h; drug alone; read-out: IC50 HEK/ABCG2 (mitoxantrone)
T1 construct: HEK293 transfected with ABCG2 (wild type)
Description: (§1) The MTT colorimetric assay was used to detect the sensitivity of the cells against anticancer drugs. Cells (5 × 10^3/well) were seeded evenly into (160 μl/well) 96-well plates and cultured overnight. For the reversal experiments, ORA, OSA, and parallel control modulators (20 μl/well) were added 1 h prior. Different concentrations of the chemotherapeutic drugs (20 μl/well) were then added into the designated wells. After 72 h of incubation, 20 μl of MTT solution (4 mg/ml) was added to each well, and the plate was further incubated for 4 h. Subsequently, the medium was discarded, and 100 μl of dimethylsulfoxide (DMSO) was added into each well to dissolve the formazan crystals. The absorbance was determined at 570 nm by the OPSYS microplate reader (DYNEX Technology, Inc., Chantilly, VA). The IC50 value was calculated from the survival curves using the modified Bliss method. Verapamil was used at a nontoxic concentration of 3 μM as a positive control for ABCB1 overexpressing cell lines. FTC at 3 μM and PAK-104P at 10 μM were used as positive control for ABCG2 and ABCC1 overexpressing cell lines, respectively.

[2] = system: HEK293; experiment: cells; parameters: species or system HEK293 and transfected HEK293; MTT cytotoxicity, absorbance 570 nm, 72 h; conditions: Homo sapiens, HEK293, 72 h, drug alone
Description: as §1

[3] = target: T2, ABCB1 (Homo sapiens, UniProt P08183); experiment: biochemical; parameters: full length ABCB1 (HEK/ABCB1); crude membranes of High-five cells expressing ABCB1
T2 sequence (P08183 whole entry): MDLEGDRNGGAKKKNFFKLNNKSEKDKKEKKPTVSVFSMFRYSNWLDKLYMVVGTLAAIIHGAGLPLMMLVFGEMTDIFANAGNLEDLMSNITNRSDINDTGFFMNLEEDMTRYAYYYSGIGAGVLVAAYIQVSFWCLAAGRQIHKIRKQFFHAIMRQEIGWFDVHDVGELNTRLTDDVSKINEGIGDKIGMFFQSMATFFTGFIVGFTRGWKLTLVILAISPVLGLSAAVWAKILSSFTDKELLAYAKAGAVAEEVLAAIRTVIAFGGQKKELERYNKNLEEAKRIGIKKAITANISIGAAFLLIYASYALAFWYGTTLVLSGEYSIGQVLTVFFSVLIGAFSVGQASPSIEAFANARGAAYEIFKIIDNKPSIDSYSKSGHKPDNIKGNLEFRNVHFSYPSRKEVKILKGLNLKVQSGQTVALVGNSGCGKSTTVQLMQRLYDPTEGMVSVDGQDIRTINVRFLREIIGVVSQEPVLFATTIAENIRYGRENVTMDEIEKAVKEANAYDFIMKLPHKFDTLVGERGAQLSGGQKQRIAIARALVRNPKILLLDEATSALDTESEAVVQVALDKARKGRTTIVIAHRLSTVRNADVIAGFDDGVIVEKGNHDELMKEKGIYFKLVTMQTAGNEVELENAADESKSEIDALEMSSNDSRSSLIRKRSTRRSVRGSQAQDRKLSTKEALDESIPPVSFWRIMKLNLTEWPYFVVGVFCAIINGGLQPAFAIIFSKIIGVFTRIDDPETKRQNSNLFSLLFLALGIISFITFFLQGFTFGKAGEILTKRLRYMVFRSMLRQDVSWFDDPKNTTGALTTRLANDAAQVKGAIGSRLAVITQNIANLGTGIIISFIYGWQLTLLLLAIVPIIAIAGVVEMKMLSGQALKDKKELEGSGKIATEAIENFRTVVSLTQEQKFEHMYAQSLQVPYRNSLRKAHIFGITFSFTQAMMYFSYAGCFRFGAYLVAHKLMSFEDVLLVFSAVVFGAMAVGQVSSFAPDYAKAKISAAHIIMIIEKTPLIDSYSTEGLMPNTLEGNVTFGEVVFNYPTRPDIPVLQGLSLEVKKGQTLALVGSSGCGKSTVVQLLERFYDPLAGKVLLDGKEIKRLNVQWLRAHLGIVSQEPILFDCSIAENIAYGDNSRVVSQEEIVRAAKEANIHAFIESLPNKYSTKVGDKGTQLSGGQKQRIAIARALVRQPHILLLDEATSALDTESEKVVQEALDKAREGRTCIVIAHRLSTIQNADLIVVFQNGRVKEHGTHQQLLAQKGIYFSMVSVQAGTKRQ

[4] = target: T2, ABCB1; experiment: cell-based; parameters: crude membranes of High-five cells expressing ABCB1; conditions: read-out: vanadate-sensitive ATPase stimulation in crude membranes (weak: maximal 1.78-fol)
[5] = target: T2, ABCB1
[6] = system: T3, HEK/ABCB1; experiment: cells; parameters: species or system HEK293 and transfected HEK293; MTT cytotoxicity, absorbance 570 nm, 72 h; conditions: Homo sapiens, HEK293, 72 h; drug alone; read-out: IC50 HEK/ABCB1 (paclitaxel)
T3 construct: HEK293 transfected with ABCB1
Description: as §1

## O=C1c2c(O)ccc(O)c2C(=O)c2c(NCCNCCO)ccc(NCCNCCO)c21 [Mitoxantrone]
[1]
  IC50: 0.92 µM
[2]; read-out: IC50 HEK293 (mitoxantrone)
  IC50: 0.04 µM

## CC(C)(O)[C@H]1CC[C@@](C)([C@H]2CC[C@]3(C)[C@@H]2[C@H](O)C[C@@H]2[C@@]4(C)CC[C@H](N)C(C)(C)[C@@H]4CC[C@]23C)O1 [ORA, (20S, 24R/S)-epoxy-12β, 25-dihydroxy-dommarane-3β-amine]
[3]
  EC50: 2.08 µM

## CC(C)(O)[C@@H]1CC[C@@](C)([C@H]2CC[C@]3(C)[C@@H]2[C@H](O)C[C@@H]2[C@@]4(C)CC[C@H](N)C(C)(C)[C@@H]4CC[C@]23C)O1 [OSA, (20S, 24R/S)-epoxy-12β, 25-dihydroxy-dommarane-3β-amine]
[4]
  maximal fold induction: 1.78

## CC(=O)O[C@H]1C(=O)[C@@]2(C)[C@H]([C@H](OC(=O)c3ccccc3)[C@]3(O)C[C@H](OC(=O)[C@H](O)[C@@H](NC(=O)c4ccccc4)c4ccccc4)C(C)=C1C3(C)C)[C@]1(OC(C)=O)CO[C@@H]1C[C@@H]2O [paclitaxel]
[5]
  radiolabelled efflux and accumulation in ABCB1-overexpressing versus parental ce: decreased much faster over time than those in the parental cells, suggesting an active process of drug efflux mediated by ABCB1
[6]
  IC50: 8.2 µM
[2]; read-out: IC50 HEK293 (paclitaxel)
  IC50: 0.18 µM
